Target: T1, hTAS1R2 (TAS1R2/TAS1R3 sweet taste receptor) (Homo sapiens, UniProt Q8TE23)
T1 construct: with hTAS1R3 (TAS1R3)
T1 sequence (Q8TE23 20-839): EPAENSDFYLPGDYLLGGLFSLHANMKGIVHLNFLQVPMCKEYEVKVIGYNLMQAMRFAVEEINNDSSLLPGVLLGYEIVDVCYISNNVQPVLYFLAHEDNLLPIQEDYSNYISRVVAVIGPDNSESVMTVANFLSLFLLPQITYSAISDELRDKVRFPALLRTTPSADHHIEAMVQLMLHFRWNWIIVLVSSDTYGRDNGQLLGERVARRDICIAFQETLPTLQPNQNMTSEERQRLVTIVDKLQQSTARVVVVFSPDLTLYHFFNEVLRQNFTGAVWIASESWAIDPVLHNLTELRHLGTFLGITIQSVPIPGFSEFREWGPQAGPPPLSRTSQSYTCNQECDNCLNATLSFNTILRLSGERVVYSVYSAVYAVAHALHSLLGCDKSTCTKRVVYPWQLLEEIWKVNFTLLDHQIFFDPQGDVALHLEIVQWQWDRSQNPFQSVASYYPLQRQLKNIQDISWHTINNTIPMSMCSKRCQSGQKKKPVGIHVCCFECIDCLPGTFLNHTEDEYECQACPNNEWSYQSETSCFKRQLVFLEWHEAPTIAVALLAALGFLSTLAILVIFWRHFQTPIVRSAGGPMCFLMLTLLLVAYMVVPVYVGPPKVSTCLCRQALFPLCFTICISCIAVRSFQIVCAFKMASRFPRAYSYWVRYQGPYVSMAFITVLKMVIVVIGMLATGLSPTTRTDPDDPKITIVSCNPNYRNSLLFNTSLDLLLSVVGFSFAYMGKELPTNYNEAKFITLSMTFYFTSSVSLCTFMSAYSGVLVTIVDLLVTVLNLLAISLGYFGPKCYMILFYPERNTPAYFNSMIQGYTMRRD
T1 sequence (Q7RTX0 21-852 partner): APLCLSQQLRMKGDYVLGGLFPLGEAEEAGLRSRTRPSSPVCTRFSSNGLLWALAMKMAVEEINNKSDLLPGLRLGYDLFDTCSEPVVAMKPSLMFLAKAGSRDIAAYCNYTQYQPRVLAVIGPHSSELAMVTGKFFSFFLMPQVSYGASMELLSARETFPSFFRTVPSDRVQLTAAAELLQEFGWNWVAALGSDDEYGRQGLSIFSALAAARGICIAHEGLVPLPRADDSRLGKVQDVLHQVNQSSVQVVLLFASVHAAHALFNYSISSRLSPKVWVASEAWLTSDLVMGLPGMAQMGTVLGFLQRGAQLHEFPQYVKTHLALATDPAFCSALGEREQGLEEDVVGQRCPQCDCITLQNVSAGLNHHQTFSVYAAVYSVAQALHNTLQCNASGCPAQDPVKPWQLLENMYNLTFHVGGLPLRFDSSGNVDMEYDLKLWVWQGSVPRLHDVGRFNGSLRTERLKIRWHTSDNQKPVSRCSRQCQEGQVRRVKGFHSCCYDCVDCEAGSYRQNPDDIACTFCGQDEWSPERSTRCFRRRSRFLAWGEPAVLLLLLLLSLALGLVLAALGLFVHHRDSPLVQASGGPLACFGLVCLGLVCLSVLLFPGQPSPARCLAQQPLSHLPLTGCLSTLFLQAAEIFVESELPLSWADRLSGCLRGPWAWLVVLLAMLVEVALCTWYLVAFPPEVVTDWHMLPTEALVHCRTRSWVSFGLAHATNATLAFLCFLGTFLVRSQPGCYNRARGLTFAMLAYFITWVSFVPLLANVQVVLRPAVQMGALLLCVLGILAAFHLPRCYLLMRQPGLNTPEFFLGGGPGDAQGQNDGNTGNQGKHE
Assay: calcium mobilization (GCaMP5G, FLIPR) in HEK293T-Gα[…]gust44 cells transfected with hTAS1R2 and hTAS1R3, mock-subtracted
Format: cell-based

OC[C@H]1O[C@H](O[C@]2(CCl)O[C@H](CCl)[C@@H](O)[C@@H]2O)[C@H](O)[C@@H](O)[C@H]1Cl [sucralose]
EC50: 52 ± 7 µM
